Laboratory results from PubChem BioAssay AID743117 (The Scripps Research Institute Molecular Screening Center, 2013).
The source made the active and inactive calls.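 Rule for the calls: active = 50% or more inhibition of both lipases LYPLA1 and LYPLA2, with off-target enzymes other than ABHD6 below 50%; inactive = below 50% on either lipase, or hitting an off-target enzyme.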

Key:
Experiment in all cases: LYPLA1/LYPLA2 inhibition with serine hydrolase anti-target selectivity, late-stage follow-up, selectivity assay for LYPLA1/LYPLA2 inhibitor project, cell lysate, mouse brain membrane proteome, FP-Rh fluorescence, powders (AID 743117)
LYPLA1 = settings: gel-based ABPP FP-Rh fluorescence, at 100 µM (top of the series)
LYPLA2 = settings: gel-based ABPP FP-Rh fluorescence, at 100 µM (top of the series)
[1] = target: Monoacylglycerol lipase ABHD6 (Mus musculus) (UniProt Q8R2Y0); settings: gel-based ABPP FP-Rh fluorescence, measured here: ABHD6 Selectivity, anti-target concentration >50% inhibition, stronger effect = lower value
FAAH Selectivity = settings: gel-based ABPP FP-Rh fluorescence, measured here: FAAH Selectivity, anti-target concentration >50% inhibition, stronger effect = lower value
MAGL Selectivity = settings: gel-based ABPP FP-Rh fluorescence, measured here: MAGL Selectivity, anti-target concentration >50% inhibition, stronger effect = lower value
ABHD12 Selectivity = settings: gel-based ABPP FP-Rh fluorescence, measured here: ABHD12 Selectivity, anti-target concentration >50% inhibition, stronger effect = lower value
ABHD4 Selectivity = ABHD4 Selectivity (UniProt Q8VD66); settings: gel-based ABPP FP-Rh fluorescence, measured here: ABHD4 Selectivity, anti-target concentration >50% inhibition, stronger effect = lower value
APEH Selectivity = settings: gel-based ABPP FP-Rh fluorescence, measured here: APEH Selectivity, anti-target concentration >50% inhibition, stronger effect = lower value

Sequence of ABHD4 Selectivity (Q8VD66 whole entry, looked up): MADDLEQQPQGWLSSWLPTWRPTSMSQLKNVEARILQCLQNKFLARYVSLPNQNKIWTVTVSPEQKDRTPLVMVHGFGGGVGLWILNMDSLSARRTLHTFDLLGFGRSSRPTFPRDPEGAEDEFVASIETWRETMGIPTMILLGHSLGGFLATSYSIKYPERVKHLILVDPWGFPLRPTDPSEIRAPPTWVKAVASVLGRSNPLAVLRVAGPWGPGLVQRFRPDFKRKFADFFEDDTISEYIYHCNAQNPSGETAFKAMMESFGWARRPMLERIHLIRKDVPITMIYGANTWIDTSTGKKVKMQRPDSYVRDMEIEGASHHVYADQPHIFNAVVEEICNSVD
Sequence of Monoacylglycerol lipase ABHD6 (Mus musculus) (Q8R2Y0 whole entry, looked up): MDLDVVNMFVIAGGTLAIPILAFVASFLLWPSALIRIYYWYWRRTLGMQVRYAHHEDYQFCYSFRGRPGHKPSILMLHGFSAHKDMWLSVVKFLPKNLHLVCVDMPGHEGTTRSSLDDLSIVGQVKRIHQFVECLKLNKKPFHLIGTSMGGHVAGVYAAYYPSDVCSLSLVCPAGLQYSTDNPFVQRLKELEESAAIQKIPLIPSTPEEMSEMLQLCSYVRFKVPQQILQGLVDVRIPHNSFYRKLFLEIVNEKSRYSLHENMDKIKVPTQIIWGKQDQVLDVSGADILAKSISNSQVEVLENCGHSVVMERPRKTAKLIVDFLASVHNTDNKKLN

| SMILES | inhibition (LYPLA1) | inhibition (LYPLA2) | concentration for >50% inhibition [1] [µM] | concentration for >50% inhibition (FAAH Selectivity) [µM] | concentration for >50% inhibition (MAGL Selectivity) [µM] | concentration for >50% inhibition (ABHD12 Selectivity) [µM] | concentration for >50% inhibition (ABHD4 Selectivity) [µM] | concentration for >50% inhibition (APEH Selectivity) [µM] |
| --- | --- | --- | --- | --- | --- | --- | --- | --- |
| CC(C)(C)OC(=O)N1CCN2C(=O)N(OC(=O)N3CCOCC3Cc3ccccc3)C(=O)C2C1 (stereo not given) | 0% (inactive) | 0% (inactive) | 0.1 | – | – | – | – | – |
| COC(=O)C1CCN(C(=O)ON2C(=O)C3CN(C(=O)OC(C)(C)C)CCN3C2=O)CC1 (stereo not given) | 25% (inactive) | 25% (inactive) | 0.1 | – | – | – | – | – |
| O=C(ON1C(=O)C2CN(C(=O)c3ccc(F)c([N+](=O)[O-])c3)CCN2C1=O)N1CCC(CCc2ccc(Cl)cc2)CC1 (stereo not given) | 100% | 100% | 0.1 | 10 | 100 | 10 | – | – |
| O=C(ON1C(=O)C2CN(C(=O)N3CCOCC3)CCN2C1=O)N1CCC(CCc2ccc(Cl)cc2)CC1 (stereo not given) | 100% | 100% | 0.1 | 10 | 100 | 100 | – | – |
| CN(C)c1ccc(C(=O)N2CCN3C(=O)N(OC(=O)N4CCC(CCc5ccc(Cl)cc5)CC4)C(=O)C3C2)cc1 (stereo not given) | 100% | 100% | 0.1 | 10 | – | 10 | – | – |
| O=C(ON1C(=O)C2CN(C(=O)N3CCCC3)CCN2C1=O)N1CCC(CCc2ccc(Cl)cc2)CC1 (stereo not given) | 100% | 100% | 0.1 | 1 | 100 | 100 | 100 | – |
| O=C(ON1C(=O)C2CN(CCc3ccccc3)CCN2C1=O)N1CCC(CCc2ccc(Cl)cc2)CC1 (stereo not given) | 100% (inactive) | 100% (inactive) | 0.1 | 10 | 10 | – | 10 | – |
| CC(C)(C)OC(=O)N1CCN2C(=O)N(OC(=O)N3CCC(C(=O)Nc4ccccc4)CC3)C(=O)C2C1 (stereo not given) | 50% (inactive) | 25% (inactive) | 0.1 | 100 | – | – | – | – |

Continued, values first:

| inhibition (LYPLA1) | inhibition (LYPLA2) | concentration for >50% inhibition [1] [µM] | concentration for >50% inhibition (FAAH Selectivity) [µM] | concentration for >50% inhibition (MAGL Selectivity) [µM] | concentration for >50% inhibition (ABHD12 Selectivity) [µM] | concentration for >50% inhibition (ABHD4 Selectivity) [µM] | concentration for >50% inhibition (APEH Selectivity) [µM] | SMILES |
| --- | --- | --- | --- | --- | --- | --- | --- | --- |
| 60% (inactive) | 60% (inactive) | 0.1 | – | – | – | – | – | CC(C)(C)OC(=O)N1CCN2C(=O)N(OC(=O)N3CCN(C(c4ccc(Cl)cc4)c4ccc(Cl)cc4)CC3)C(=O)C2C1 (stereo not given) |
| 100% | 100% | 0.1 | 1 | 10 | – | – | – | O=C(Cc1ccccc1)N1CCN2C(=O)N(OC(=O)N3CCC(CCc4ccc(Cl)cc4)CC3)C(=O)C2C1 (stereo not given) |
| 100% | 100% | 0.1 | 1 | 10 | 10 | 10 | – | O=C(ON1C(=O)C2CN(C(=O)N3CCCCC3)CCN2C1=O)N1CCC(CCc2ccc(Cl)cc2)CC1 (stereo not given) |
| 100% | 100% | 0.1 | 10 | 100 | 10 | – | – | Cc1ccc(C(=O)N2CCN3C(=O)N(OC(=O)N4CCC(CCc5ccc(Cl)cc5)CC4)C(=O)C3C2)cc1 (stereo not given) |
| 90% (inactive) | 90% (inactive) | 0.1 | 1 | 100 | – | 1 | – | O=C(ON1C(=O)C2CN(Cc3ccc(Br)cc3)CCN2C1=O)N1CCC(CCc2ccc(Cl)cc2)CC1 (stereo not given) |
| 25% (inactive) | 25% (inactive) | 0.1 | – | – | – | – | 100 | CC(C)(C)OC(=O)N1CCN2C(=O)N(OC(=O)N3CCCCC3)C(=O)C2C1 (stereo not given) |
| 100% | 100% | 0.1 | 10 | 100 | 10 | 100 | – | O=C(ON1C(=O)C2CN(C(=O)c3ccc(Br)cc3)CCN2C1=O)N1CCC(CCc2ccc(Cl)cc2)CC1 (stereo not given) |
| 100% (inactive) | 100% (inactive) | 0.1 | – | – | – | – | – | CCN(C(=O)C1CCN(C(=O)ON2C(=O)C3CN(C(=O)OC(C)(C)C)CCN3C2=O)CC1)c1ccccc1 (stereo not given) |
| 100% | 100% | 0.1 | 1 | 10 | 10 | 100 | – | CC(C)(C)CC(=O)N1CCN2C(=O)N(OC(=O)N3CCC(CCc4ccc(Cl)cc4)CC3)C(=O)C2C1 (stereo not given) |
| 90% (inactive) | 75% (inactive) | 0.1 | 100 | – | 100 | – | – | CC(C)(C)OC(=O)N1CCN2C(=O)N(OC(=O)N3CCN(CCc4ccccc4)CC3)C(=O)C2C1 (stereo not given) |
| 100% | 100% | 0.1 | 10 | 10 | 10 | – | – | COc1ccc(C(=O)N2CCN3C(=O)N(OC(=O)N4CCC(CCc5ccc(Cl)cc5)CC4)C(=O)C3C2)cc1 (stereo not given) |
| 100% | 100% | 0.1 | 1 | 100 | 10 | – | – | CC(C)(C)OC(=O)N1CCN2C(=O)N(OC(=O)N3CCC(CCc4ccc(Cl)cc4)CC3)C(=O)C2C1 (stereo not given) |
